Like-named read-outs stand apart in the source and are kept apart here.
Key:
[1] = test system: visceral hypersensitivity; set-up: species or system adult female Sprague Dawley rats; settings: rat
normal colon transit = test system: normal colon transit; set-up: species or system male Sprague Dawley rats; settings: rat
[2] = test system: castor oil induced diarrhoea; set-up: species or system male NMRI mice; settings: mouse, sc

| SMILES | In vivo agonism hypersensitivity max inhibition % of control ([1]; sc) | In vivo agonism hypersensitivity max inhibition % of control ([1]; po) | In vivo agonism transit Mean retention time % control (normal colon transit; po) | In vivo agonism transit Mean retention time % control (normal colon transit; sc) | In vivo agonism diarrhoea mean score % control [2] |
| --- | --- | --- | --- | --- | --- |
| CN(CCCN1CN(c2ccccc2)C2(CCN(CCC3CCC4CC3C4(C)C)CC2)C1=O)CC1(O)CCNCC1 (stereo not shown) [Example 37, 8-[2-(6,6-Dimethyl-bicyclo[3.1.1]hept-2-yl)-ethyl]-3-{3-[(4-hydroxy-piperidin-4-ylmethyl)-methyl-amino]-propyl}-1-phenyl-1,3,8-triaza-spiro[4.5]decan-4-one] | 34 (s.c.) % of control | – | – | – | – |
| CN(CCN1CN(c2ccccc2)C2(CCN(CCC3CCC4CC3C4(C)C)CC2)C1=O)C(c1ccco1)C(O)CO (stereo not shown) [Example 51] | 45 (s.c.) % of control | 44 (p.o.) % of control | 105 (p.o.) % control | 102 (s.c.) % control | – |
| CC1(C)C2CCC(CCN3CCC4(CC3)C(=O)NCN4c3ccccc3)C1C2 (stereo not shown) [Example 1, 8-[2-(6,6-Dimethyl-bicyclo[3.1.1]hept-2-yl)-ethyl]-1-phenyl-1,3,8-triaza-spiro[4.5]decan-4-one] | 49 (s.c.) % of control | – | – | – | – |
| CNCCCN1CN(c2ccccc2)C2(CCN(CCC3CCC4CC3C4(C)C)CC2)C1=O (stereo not shown) [Example 13, 8-[2-(6,6-Dimethyl-bicyclo[3.1.1]hept-2-yl)-ethyl]-3-(3-methylamino-propyl)-1-phenyl-1,3,8-triaza-spiro[4.5]decan-4-one] | – | – | – | 105 (s.c.) % control | 59 (s.c.) % control |
| CNCCCCN1CN(c2ccccc2)C2(CCN(CCC3CCC4CC3C4(C)C)CC2)C1=O (stereo not shown) [Example 14] | – | – | – | 111 (s.c.) % control | 64 (s.c.) % control |

From US7241770B2 (priority 2003, dated 2007)
